Laboratory results taken from PubChem BioAssay (NCI).
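48-hour exposure; five concentrations; linearly interpolated endpoints. Abbreviation: GI50, concentration required for 50% inhibition of growth. TGI denotes the concentration required for complete inhibition of growth.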

Tests used:
Assay in all cases: inhibition of tumour cell growth, NCI panel, 48 h
[1] = tested on: OVCAR-3 ovarian
[2] = tested on: KM12 colon
[3] = tested on: U251 CNS
[4] = tested on: SK-OV-3 ovarian
[5] = tested on: SR leukemia
[6] = tested on: A549 NSCLC
[7] = tested on: SK-MEL-5 melanoma
[8] = tested on: TK-10 renal
[9] = tested on: CAKI-1 renal
[10] = tested on: HCC-2998 colon

| SMILES | TGI [1] [µM] | TGI [2] [µM] | TGI [3] [µM] | TGI [4] [µM] | TGI [5] [µM] | TGI [6] [µM] | TGI [7] [µM] | TGI [8] [µM] | TGI [9] [µM] | GI50 [1] [µM] | GI50 [2] [µM] | GI50 [3] [µM] | GI50 [4] [µM] | GI50 [5] [µM] | GI50 [6] [µM] | GI50 [7] [µM] | GI50 [8] [µM] | GI50 [9] [µM] | GI50 [10] [µM] | TGI [10] [µM] |
| --- | --- | --- | --- | --- | --- | --- | --- | --- | --- | --- | --- | --- | --- | --- | --- | --- | --- | --- | --- | --- |
| CS(=O)(=O)N(CC(=O)O)Cc1ccccc1 | > 100 | > 100 | > 100 | > 100 | > 100 | > 100 | > 100 | > 100 | > 100 |  |  |  |  |  |  |  |  |  |  |  |
| O=C(O)CP(=O)(c1ccccc1)c1ccccc1.O=C(O)CP(=O)(c1ccccc1)c1ccccc1.[Cd] | 15.4 | 22.7 | 28.9 | 44.5 | 31.8 | 35.1 | 13.3 | 34.5 | 38.9 | 2.56 | 7.97 | 14.3 | 20.2 | 13.6 | 17.1 | 2.19 | 16.9 | 22.7 |  |  |
| CNc1ccc(C(=O)CC(O)CCC(C)C2OC(=O)CC(O)CC(=O)CC(O)CC(O)CC(O)CC(O)CC3(O)CC(O)C(C(=O)NCCc4ccccn4)C(CC(OC4OC(C)C(O)C(N)C4O)/C=C/C=C/C=C/C=C\C=C/C=C/C=C/C2C)O3)cc1 (stereo not given) | 2.16 | > 18.9 | > 40.3 | > 50 |  |  | 0.447 | 0.499 | 0.633 | 0.643 | 3.6 | 2.11 | 2.32 |  |  | 0.157 | 0.128 | 0.165 | 1.59 | 4.88 |
| O=C(NCCCCCCNC(=O)NC1OCC(O)C(O)C1O)NC1OCC(O)C(O)C1O (stereo not given) | > 100 | > 100 | > 100 | > 100 | > 100 | > 100 | > 100 | > 100 | > 100 |  |  |  |  |  |  |  |  |  |  |  |
| NCC(=O)NC(CO)C(=O)O (stereo not given) | > 100 | > 100 | > 100 | > 100 |  | > 100 | > 100 | > 100 | > 100 |  |  |  |  |  |  |  |  |  |  | > 100 |
| Cc1[nH]c2ccccc2c1C1=CC(=O)C=CC1=O | 4.6 | 25.5 | 31.4 | 33.5 |  | 63.9 | 25.3 | 5.85 | 22.6 | 2.16 | 12.2 | 14.8 | 14.5 |  | 21 | 12 | 2.32 | 5.66 | 15.7 | 29.4 |
| O=C(Nc1cccc(-n2cc(-c3ccncc3)c(-c3ccc(O)c(Cl)c3)n2)c1)c1ccc(N2CCOCC2)c(C(F)(F)F)c1 |  | > 50 | > 50 | > 50 | > 50 | > 50 | > 50 | > 50 | > 50 |  | 1.12 | 0.917 | > 50 | 1.05 | 2 | 1.75 | > 50 | 2.24 | 3.44 | > 50 |
| COc1ccc(OC)c(-c2cc(C(=O)O)c3cc4ccccc4cc3n2)c1 | > 100 | > 100 | > 100 | > 100 | > 100 | > 100 | > 100 | > 100 | > 100 |  |  |  |  |  |  |  |  |  |  |  |
| CN1CCc2cc(O)c3cc2C1Cc1ccc(cc1)Oc1cc(ccc1O)CC1c2c(cc4c(c2O3)OCO4)CCN1C (stereo not given) | > 100 | > 100 | > 100 |  | > 100 | > 100 | 33.1 | 92.2 |  |  |  |  |  |  |  |  |  |  |  | 41.7 |
| COc1cc([N+](=O)[O-])c(OC)cc1-c1nc2n(c1/C(N)=N/C(=N)N)CCS2 | > 100 | > 100 | > 100 | > 100 |  | > 100 | > 100 | 96.4 |  | 33.5 | > 100 | 9.12 | > 100 |  | 59.3 | 75.3 | 20.3 |  | > 100 | > 100 |
| Cc1ccc(C)c(N2C(=O)C(=O)c3c(C)ccc(C)c32)c1 | 34.1 | 66.1 | 35.2 | > 100 | 37.7 | > 100 | 41.2 | 85 | 87.1 |  |  |  |  |  |  |  |  |  |  |  |
| O=C(NCc1cccs1)OC1CC2CCC1C2 (stereo not given) | > 100 | > 100 | > 100 | > 100 | > 100 | > 100 | > 100 | > 100 | > 100 |  |  |  |  |  |  |  |  |  |  |  |
| O=C(O)C1CCCCC1C(=O)Nc1nc2ccccc2[nH]1 (stereo not given) | > 100 | > 100 | > 100 | > 100 | > 100 | > 100 | > 100 | > 100 | > 100 |  |  |  |  |  |  |  |  |  |  |  |
| COc1cc(CCNc2nc3cc(N)cc(N)c3nc2-c2ccccc2)cc(OC)c1 | 2.35 | 3.54 | 3.11 | 13 | 2.22 | 14.9 | 3.36 | 12.1 | 3.6 | 1.08 | 1.69 | 1.67 | 3.56 | 0.354 | 3.64 | 1.79 | 3.49 | 1.93 |  |  |
| N#C/C(=C\c1ccc([N+](=O)[O-])s1)c1nc2cc(Br)ccc2s1 | 0.733 | 2.47 | 0.986 | > 100 | 1.77 | > 100 | 0.311 | > 100 | 1.01 | 0.248 | 0.399 | 0.298 | 1.64 | 0.0856 | 0.509 | 0.167 | 0.918 | 0.218 |  |  |
| O=C(OC(CNc1c(C(=O)c2ccccc2)c(=O)n(Cc2ccccc2)c(=O)n1Cc1ccccc1)CN1CCCCC1)c1ccccc1 (stereo not given) | 35.2 | 40.2 | 29 | > 100 |  | > 100 | 42.5 | 71.6 | 35.5 | 18 | 19.9 | 15.2 | 37.6 |  | 50.3 | 18.2 | 23.6 | 18.3 | 12.1 | 24.4 |
| Cc1cc2c(=O)c3ccccc3oc2c(C#N)c1C |  | > 100 | > 100 | > 100 | > 100 | > 100 | > 100 | > 100 | > 100 |  |  |  |  |  |  |  |  |  |  | > 100 |
